From BindingDB's records for doi:10.7270/Q2RJ4GVG (The Scripps Research Institute Molecular Screening Center, 2007)
pEC50: −log10 of the molar value.

The compounds below were run against T1, Isoform 2 of Nuclear receptor ROR-alpha (Alpha-2) (Homo sapiens, UniProt P35398) (assay: activators of RORA nuclear receptor, dose response, cell-based, CHO-K1, Gal4-RORA LBD, luciferase luminescence (AID 681)). Conditions: not given.
T1 sequence (P35398 whole entry): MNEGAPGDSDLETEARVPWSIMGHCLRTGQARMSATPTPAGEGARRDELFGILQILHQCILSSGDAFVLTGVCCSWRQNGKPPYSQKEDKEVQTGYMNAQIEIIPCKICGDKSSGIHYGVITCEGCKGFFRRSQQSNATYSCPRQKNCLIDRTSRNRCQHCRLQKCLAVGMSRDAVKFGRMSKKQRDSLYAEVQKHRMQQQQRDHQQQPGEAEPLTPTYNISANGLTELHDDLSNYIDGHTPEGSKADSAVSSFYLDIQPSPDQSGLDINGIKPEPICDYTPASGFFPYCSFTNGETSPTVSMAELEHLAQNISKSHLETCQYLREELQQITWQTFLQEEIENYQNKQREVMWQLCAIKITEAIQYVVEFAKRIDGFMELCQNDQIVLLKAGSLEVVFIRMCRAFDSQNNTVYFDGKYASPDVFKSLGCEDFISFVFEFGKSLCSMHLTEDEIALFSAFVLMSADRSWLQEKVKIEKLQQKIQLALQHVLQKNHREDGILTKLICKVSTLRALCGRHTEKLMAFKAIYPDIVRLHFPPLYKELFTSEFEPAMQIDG
`O=C1N(CCCN2C(=O)C3(OCCO3)c3ccccc32)c2ccccc2C12OCCO2` [1'-[3-(2'-ketospiro[1,3-dioxolane-2,3'-indoline]-1'-yl)propyl]spiro[1,3-dioxolane-2,3'-indoline]-2'-one] showed a pEC50 of less than 4.00.
`COc1cc(C)c(C(C)C)cc1S(=O)(=O)n1cnc(C)c1` [1-(2-methoxy-4-methyl-5-propan-2-yl-phenyl)sulfonyl-4-methyl-imidazole] showed a pEC50 of 5.73.
Compound `CN1CCN(S(=O)(=O)c2ccc(Br)s2)CC1` [1-(5-bromanylthiophen-2-yl)sulfonyl-4-methyl-piperazine] has a pEC50 of less than 4.00.
`Clc1ccccc1OCCn1cnc2ccccc21` [1-[2-(2-chloranylphenoxy)ethyl]benzimidazole] showed a pEC50 of less than 5.91.
`O=C(c1ccc(-c2nnc(-c3ccccc3)o2)cc1)N1CCCCCC1` [1-azepanyl-[4-(5-phenyl-1,3,4-oxadiazol-2-yl)phenyl]methanone] was tested, and the pEC50 was 6.55.
In the case of `Cn1c(SCc2ccccc2F)nc2cccnc21` [2-(2-Fluoro-benzylsulfanyl)-3-methyl-3H-imidazo[4,5-b]pyridine], the pEC50 was 5.70.
`Clc1ccc(-c2nnc(-c3ccccc3Cl)o2)cc1` [2-(2-chlorophenyl)-5-(4-chlorophenyl)-1,3,4-oxadiazole] showed a pEC50 of 6.37.
Compound `COc1ccc(Nc2oc(-c3ccccc3Cl)nc2C#N)cc1` [2-(2-chlorophenyl)-5-(4-methoxyanilino)-1,3-oxazole-4-carbonitrile] has a pEC50 of 5.72.
In the case of `CCCCOC(=O)C(C)Oc1ccc(=O)n(-c2ccccc2)n1` (configuration not stated) [2-(6-keto-1-phenyl-pyridazin-3-yl)oxypropionic acid butyl ester], the pEC50 was less than 4.00.
In the case of `CCOC(=O)c1ccccc1NC(=O)CSc1nnnn1C1CCCCC1` [2-[2-(1-Cyclohexyl-1H-tetrazol-5-ylsulfanyl)-acetylamino]-benzoic acid ethyl ester], the pEC50 was less than 4.00.
For `Cc1cc(NCCOCCO)n2ncc(-c3ccc(Cl)cc3)c2n1` [2-[2-[[3-(4-chlorophenyl)-5-methyl-7-pyrazolo[1,5-a]pyrimidinyl]amino]ethoxy]ethanol], the pEC50 was 6.27.
For `CCCCOc1ccc(-c2nnn(CC(=O)NCc3ccco3)n2)cc1` [2-[5-(4-Butoxy-phenyl)-tetrazol-2-yl]-N-furan-2-ylmethyl-acetamide], the pEC50 was 5.29.
Work on `Nc1c(C(=O)NCCN2CCOCC2)c2nc3ccccc3nc2n1-c1ccc2c(c1)OCO2` [2-amino-1-(1,3-benzodioxol-5-yl)-N-(2-morpholin-4-ylethyl)pyrrolo[3,2-b]quinoxaline-3-carboxamide] yielded a pEC50 of less than 5.96.
With `O=C(c1ccco1)N1CCN(c2ncnc3c(-c4ccccc4)nsc23)CC1` [2-furanyl-[4-(3-phenyl-7-isothiazolo[4,5-d]pyrimidinyl)-1-piperazinyl]methanone] the pEC50 was 5.36.
With `COCCOC(=O)c1[nH]c2c(c1C)C(=O)CC(c1cc(OC)ccc1OC)C2` (configuration not stated) [2-methoxyethyl 6-(2,5-dimethoxyphenyl)-3-methyl-4-oxo-1,5,6,7-tetrahydroindole-2-carboxylate] the pEC50 was less than 5.44.
`Cc1cc(N)c(NC2=CC(=O)CC(C)(C)C2)cc1C` [3-(2-amino-4,5-dimethyl-anilino)-5,5-dimethyl-cyclohex-2-en-1-one] showed a pEC50 of less than 4.00.
`CC(=O)C(C)Oc1ccc2c3c(c(=O)oc2c1C)CCCC3` (configuration not stated) [3-(2-keto-1-methyl-propoxy)-4-methyl-7,8,9,10-tetrahydrobenzo[c]chromen-6-one] was tested, and the pEC50 was 6.20.
With `COc1cccc(-c2noc(-c3cccs3)n2)c1` [3-(3-methoxyphenyl)-5-(2-thienyl)-1,2,4-oxadiazole] the pEC50 was less than 6.39.
`COc1cccc(-c2noc(-c3cccnc3)n2)c1` [3-(3-methoxyphenyl)-5-(3-pyridinyl)-1,2,4-oxadiazole] showed a pEC50 of 6.07.
Compound `O=C1OC(N2CCN(Cc3ccccc3)CC2)c2ccccc21` (configuration not stated) [3-(4-benzylpiperazin-1-yl)-3H-2-benzofuran-1-one] has a pEC50 of less than 4.00.
`Cc1cc(NC(=O)c2oc3ccccc3c2C)ccc1-n1cnnn1` [3-Methyl-benzofuran-2-carboxylic acid (3-methyl-4-tetrazol-1-yl-phenyl)-amide] was tested, and the pEC50 was 5.09.
For `CCn1c(-c2ccc(N(C)C)cc2)nc2ccccc21` [4-(1-ethyl-2-benzimidazolyl)-N,N-dimethylaniline], the pEC50 was 6.08.
`COc1ccccc1-c1nc(-c2ccncc2)no1` [4-[5-(2-Methoxy-phenyl)-[1,2,4]oxadiazol-3-yl]-pyridine] was tested, and the pEC50 was 5.46.
In the case of `Cc1ccccc1Cn1ccc(NC(=O)c2onc(C)c2Cl)n1` [4-chloranyl-3-methyl-N-[1-[(2-methylphenyl)methyl]pyrazol-3-yl]-1,2-oxazole-5-carboxamide], the pEC50 was less than 4.96.
In the case of `COc1ccc(C(=O)Nc2cc(C)on2)cc1` [4-methoxy-N-(5-methyl-1,2-oxazol-3-yl)benzamide], the pEC50 was 5.98.
For `Cc1ccc(-c2nc(C#N)c(NCc3ccco3)o2)cc1` [5-(2-furanylmethylamino)-2-(4-methylphenyl)-4-oxazolecarbonitrile], the pEC50 was 5.64.
For `Oc1coc2ccc(OCc3ccc(F)cc3)cc12` [5-(4-fluorobenzyl)oxycoumaran-3-one], the pEC50 was 5.44.
In the case of `CCOc1ccc(-c2nc(C#N)c(NC3CC3)o2)cc1` [5-(cyclopropylamino)-2-(4-ethoxyphenyl)-1,3-oxazole-4-carbonitrile], the pEC50 was 6.20.
For `Cc1ccc2nc(Nc3ccc4[nH]c(O)nc4c3)c(-n3nc(C)cc3C)nc2c1` [5-[[3-(3,5-dimethyl-1-pyrazolyl)-6-methyl-2-quinoxalinyl]amino]-1,3-dihydrobenzimidazol-2-one], the pEC50 was less than 5.44.
In the case of `COc1cccc(NC(=O)c2nnn(Cc3ccc(Br)cc3F)c2N)c1` [5-amino-1-(4-bromo-2-fluoro-benzyl)-N-(3-methoxyphenyl)triazole-4-carboxamide], the pEC50 was 5.34.
`O=C(Nc1ccc(N2CCCCC2)cc1)c1cncc(Br)c1` [5-bromanyl-N-(4-piperidin-1-ylphenyl)pyridine-3-carboxamide] gave a pEC50 of 5.99.
Compound `CCOc1cc(N2CCOCC2)c(OCC)cc1NS(=O)(=O)c1ccc(Cl)s1` [5-chloranyl-N-(2,5-diethoxy-4-morpholin-4-yl-phenyl)thiophene-2-sulfonamide] has a pEC50 of 5.58.
`CCN(CCCNC(=O)c1cn(CC)c2ccc(S(=O)(=O)N(C)C)cc2c1=O)c1cccc(C)c1` [6-(dimethylsulfamoyl)-1-ethyl-N-[3-(N-ethyl-3-methyl-anilino)propyl]-4-keto-quinoline-3-carboxamide] was tested, and the pEC50 was less than 4.00.
With `COC(=O)c1c(NC(=O)CC2SCC(C(=O)OC)NC2=O)sc2c1CCCC2` (configuration not stated) [6-[2-[(3-carbomethoxy-4,5,6,7-tetrahydrobenzothiophen-2-yl)amino]-2-keto-ethyl]-5-keto-thiomorpholine-3-carboxylic acid methyl ester] the pEC50 was less than 4.00.
In the case of `Cc1cccn2cc(-c3ccccc3)nc12` [8-methyl-2-phenyl-imidazo[1,2-a]pyridine], the pEC50 was 6.25.
In the case of `Cn1cccc1C(=O)OCc1csc(-c2ccccc2)n1` [(2-phenyl-1,3-thiazol-4-yl)methyl 1-methylpyrrole-2-carboxylate], the pEC50 was 6.66.
Compound `CCOC(=O)CSc1nc2cc(OCC)ccc2cc1C#N` [(3-Cyano-7-ethoxy-quinolin-2-ylsulfanyl)-acetic acid ethyl ester] has a pEC50 of 5.74.
With `CC1=CCC(COC(=O)Nc2ccccc2)CC1` (configuration not stated) [(4-methylcyclohex-3-en-1-yl)methyl N-phenylcarbamate] the pEC50 was 5.82.
Compound `CCN(CC)C(=O)Oc1ccc2c(=O)c(-c3ccccc3)coc2c1` [(4-oxidanylidene-3-phenyl-chromen-7-yl) N,N-diethylcarbamate] has a pEC50 of 5.91.
With `CCOC(=O)Nc1ccc2c(c1)Nc1ccccc1S2` [(10H-Phenothiazin-2-yl)-carbamic acid ethyl ester] the pEC50 was 5.46.
Work on `C=CCOc1ccc(C=CC(C)N=O)cc1` (configuration not stated) [(E)-4-(4-allyloxyphenyl)but-3-en-2-one oxime] yielded a pEC50 of 5.87.
Work on `CCOc1ccc(C=CC(C)N=O)cc1` (configuration not stated) [(Z)-4-(4-ethoxyphenyl)-3-buten-2-one oxime] yielded a pEC50 of 6.31.
With `CC(C)CNS(=O)(=O)c1ccc(C(=O)Nc2ccc3c(c2)OCCO3)cc1` [MLS000032888] the pEC50 was 5.46.
For `COc1ccc(C(O)P(=O)(O)CCc2ccccc2)cc1` (configuration not stated) [MLS000038577], the pEC50 was less than 4.00.
Compound `COc1ccc(C(=O)n2c(-c3ccco3)nc3ccccc32)cc1` [MLS000039368] has a pEC50 of 5.40.
Compound `COc1ccccc1-c1nnc(NC(C)=O)s1` [MLS000041972] has a pEC50 of 5.76.
`CCn1c(Cn2nnc(-c3ccccc3)n2)nnc1SCC(=O)Nc1ccc(C(C)=O)cc1` [MLS000068275] showed a pEC50 of less than 4.00.
Compound `CCOc1ccc2nc(NC(=O)c3cnccn3)sc2c1` [MLS000070707] has a pEC50 of less than 6.87.
`COc1ccc2nc(NC(=O)CSc3nnc(-c4ccoc4C)n3C)sc2c1` [MLS000073639] showed a pEC50 of 5.69.
Compound `CCc1nnc2c3cnn(-c4ccccc4)c3ncn12` [MLS000080478] has a pEC50 of less than 5.44.
Compound `O=C(NC1CCCC1)c1cc(-c2cccs2)on1` [MLS000087238] has a pEC50 of 5.99.
In the case of `Cc1ccc2c(c1)c1c3n2CCCNC3CCC1` (configuration not stated) [MLS000105423], the pEC50 was less than 4.00.
Work on `COc1ccc(CCC(=O)Nc2ccc3c(c2)OCCO3)cc1` [MLS000110197] yielded a pEC50 of less than 4.00.
Work on `CCOc1ccc2nc(N3CCC(C(=O)N4CCN(c5ccccn5)CC4)CC3)sc2c1` [MLS000119552] yielded a pEC50 of less than 5.44.
`O=C(Nc1nnc(C23CC4CC(CC(C4)C2)C3)s1)c1ccco1` [N-[5-(1-adamantyl)-1,3,4-thiadiazol-2-yl]furan-2-carboxamide] showed a pEC50 of 6.50.

Same assay, conditions: inactive by the depositor's call
`O=c1c2ccccc2nc2ccc(NCc3ccco3)nn12` [2-(2-furanylmethylamino)-10-pyridazino[6,1-b]quinazolinone] gave a pEC50 of 4.97.
Compound `O=C(NCc1cccs1)c1noc2c1CCCC2` [MLS000087354] has a pEC50 of 5.00.
